# Results reported in patent US10294202B2, “Pyrrolidinones as herbicides” (FMC Corporation, priority 2013, dated 2019).
# Columns and labels:
# [1] = system: barnyardgrass; experiment: Test A pre-/postemergence herbicide test; format: in vivo, Echinochloa crus-galli
# In short: (§1)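 Seeds in loam–sand blend received preemergence directed soil spray; separately, plants 2–10 cm at one- to two-leaf stage received postemergence spray, both with test chemicals in non-phytotoxic solvent with surfactant. After ~10 days in greenhouse, injury rated visually against untreated controls, 0 (no effect) to 100 (complete control).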
# [2] = system: kochia; experiment: Test A pre-/postemergence herbicide test; format: in vivo, Kochia scoparia; details: for Plant response rating, Kochia: 0 to 100 scale
# In short: as §1
# [3] = system: ragweed; experiment: Test A pre-/postemergence herbicide test; format: in vivo, Ambrosia elatior; details: for Plant response rating, Ragweed: 0 to 100 scale
# In short: as §1
# [4] = system: ryegrass, Italian; experiment: Test A pre-/postemergence herbicide test; format: in vivo, Lolium multiflorum; details: for Plant response rating, Ryegrass, Italian: 0 to 100 scale
# In short: as §1
# [5] = system: giant foxtail; experiment: Test A pre-/postemergence herbicide test; format: in vivo, Setaria faberii; details: for Plant response rating, Foxtail, Giant: 0 to 100 scale
# In short: as §1
# [6] = system: pigweed; experiment: Test A pre-/postemergence herbicide test; format: in vivo, Amaranthus retroflexus; details: for Plant response rating, Pigweed: 0 to 100 scale
# In short: as §1
# [7] = system: wheat; experiment: Test A pre-/postemergence herbicide test; format: in vivo, Triticum aestivum; details: Postemergence; for Plant response rating, Wheat: 125 g ai/ha, 0 to 100 scale; for Wheat plant response rating (0 to 100 scale, 0 is no effect, 100 is complete control): 500 g ai/ha
# In short: as §1
# [8] = system: corn; experiment: Test A pre-/postemergence herbicide test; format: in vivo, Zea mays; details: Postemergence
# In short: as §1
# [9] = system: blackgrass; experiment: Test A postemergence herbicide test; format: in vivo, Alopecurus myosuroides
# In short: (§2)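 Young potted plants in a loam–sand mix, one- to two-leaf stage and 2–10 cm tall, receive the test chemical postemergence and stay in a greenhouse for approximately 10 days. Injury is then judged by eye against untreated plants, scored 0 (none) to 100 (complete control).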
# [10] = system: galium; experiment: Test A postemergence herbicide test; format: in vivo, Galium aparine; details: for Plant response rating, Galium: 125 g ai/ha, 0 to 100 scale; for Galium plant response rating (0 to 100 scale, 0 is no effect, 100 is complete control): 500 g ai/ha
# In short: as §2
# [11] = system: rice; experiment: Test B flooded paddy test; format: in vivo, Oryza sativa; details: 500 g ai/ha, Flood; scale of 0 to 100 where 0 is no effect and 100 is complete control
# In short: (§3)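 Scored visually 0–100 (0 no effect, 100 complete control) versus controls after 13 to 15 greenhouse days. Treatment: compound added to paddy water kept 3 cm above soil, on 2-leaf-stage plants.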
# [12] = system: sedge, umbrella; experiment: Test B flooded paddy test; format: in vivo, Cyperus difformis; details: 500 g ai/ha, Flood; scale of 0 to 100 where 0 is no effect and 100 is complete control
# In short: as §3
# [13] = system: ducksalad; experiment: Test B flooded paddy test; format: in vivo, Heteranthera limosa; details: 500 g ai/ha, Flood; scale of 0 to 100 where 0 is no effect and 100 is complete control
# In short: as §3
# [14] = system: barnyardgrass; experiment: Test B flooded paddy test; format: in vivo, Echinochloa crus-galli; details: 500 g ai/ha, Flood; scale of 0 to 100 where 0 is no effect and 100 is complete control
# In short: as §3
# [15] = 125 g ai/ha, visual rating, 0 to 100 scale, 0 no effect, 100 complete control, approximately 10 days, preemergence
# [16] = 125 g ai/ha, visual rating, 0 no effect, 100 complete control, approximately 10 days, preemergence
# [17] = Postemergence, 125 g ai/ha, 0 is no effect, 100 is complete control
# [18] = preemergence, 500 g ai/ha, 0 is no effect and 100 is complete control
# [19] = 0 is no effect, 100 is complete control
# [20] = 125 g ai/ha, 0 to 100 scale, 0 is no effect, 100 is complete control
# [21] = Postemergence, 125 g ai/ha, 0 no effect, 100 complete control
# [22] = 0 no effect, 100 complete control
# [23] = 125 g ai/ha, 0 to 100 scale, 0 no effect, 100 complete control
# [24] = 500 g ai/ha, 0 to 100 scale (0 no effect, 100 complete control)
smiles,measurement,setting,value
O=C1NCC(c2ccc(Cl)cc2)C1C(=O)Nc1cccc(Cl)c1Cl (stereo not drawn) [Compound 221],"Plant response rating, Barnyardgrass",[1]; [15],0
same,"Plant response rating, Barnyardgrass","[1]; Postemergence, 125 g ai/ha, 0 to 100 scale, 0 is no effect, 100 is complete control",0
same,"Barnyardgrass plant response rating (0 to 100 scale, 0 is no effect, 100 is complete control)","[1]; Postemergence, 500 g ai/ha",0
same,"Plant response rating, Barnyardgrass","[1]; preemergence, 500 g ai/ha, 0 to 100 scale, 0 is no effect and 100 is complete control",0
same,"Plant response rating, Kochia",[2]; [16],0
same,"Plant response rating, Kochia",[2]; [17],0
same,"Kochia plant response rating (0 to 100 scale, 0 is no effect, 100 is complete control)","[2]; Postemergence, 500 g ai/ha",0
same,"Plant response rating, Kochia",[2]; [18],0
same,"Plant response rating, Ragweed",[3]; [16],0
same,"Plant response rating, Ragweed",[3]; [17],0
same,"Ragweed plant response rating (0 to 100 scale, 0 is no effect, 100 is complete control)","[3]; Postemergence, 500 g ai/ha",0
same,"Plant response rating, Ragweed",[3]; [18],0
same,"Plant response rating, Ryegrass, Italian",[4]; [16],0
same,"Plant response rating, Ryegrass, Italian",[4]; [17],0
same,"Ryegrass, Italian plant response rating (0 to 100 scale, 0 is no effect, 100 is complete control)","[4]; Postemergence, 500 g ai/ha",0
same,"Plant response rating, Ryegrass, Italian",[4]; [18],0
same,"Plant response rating, Foxtail, Giant",[5]; [16],60
same,"Plant response rating, Foxtail, Giant",[5]; [17],0
same,"Foxtail, Giant plant response rating (0 to 100 scale, 0 is no effect, 100 is complete control)","[5]; Postemergence, 500 g ai/ha",30
same,"Plant response rating, Foxtail, Giant",[5]; [18],80
same,"Plant response rating, Pigweed",[6]; [16],0
same,"Plant response rating, Pigweed",[6]; [17],0
same,"Pigweed plant response rating (0 to 100 scale, 0 is no effect, 100 is complete control)","[6]; Postemergence, 500 g ai/ha",0
same,"Plant response rating, Pigweed",[6]; [18],0
same,"Plant response rating, Wheat",[7]; [19],0
same,"Wheat plant response rating (0 to 100 scale, 0 is no effect, 100 is complete control)",[7],0
same,"Plant response rating, Corn",[8]; [20],0
same,"Corn plant response rating (0 to 100 scale, 0 is no effect, 100 is complete control)",[8]; 500 g ai/ha,0
same,"Plant response rating, Blackgrass",[9]; [20],0
same,"Blackgrass plant response rating (0 to 100 scale, 0 is no effect, 100 is complete control)",[9]; 500 g ai/ha,0
same,"Plant response rating, Galium",[10]; [19],0
same,"Galium plant response rating (0 to 100 scale, 0 is no effect, 100 is complete control)",[10],0
same,"Plant response rating, Rice",[11],0
same,"Plant response rating, Sedge, Umbrella",[12],0
same,"Plant response rating, Ducksalad",[13],0
same,"Plant response rating, Barnyardgrass",[14],0
O=C1NCC(c2cccc(OC(F)(F)C(F)F)c2)C1C(=O)Nc1ccc(F)c(F)c1F (racemic) [Compound 124],"Plant response rating, Barnyardgrass",[1]; [15],70
same,"Plant response rating, Barnyardgrass","[1]; Postemergence, 125 g ai/ha, 0 to 100 scale, 0 no effect, 100 complete control",60
same,"Plant response rating, Barnyardgrass","[1]; Postemergence, 500 g ai/ha, 0 to 100 scale (0 no effect, 100 complete control)",70
same,"Plant response rating, Barnyardgrass","[1]; preemergence, 500 g ai/ha, 0 to 100 scale (0 no effect, 100 complete control)",80
same,"Plant response rating, Kochia",[2]; [16],60
same,"Plant response rating, Kochia",[2]; [21],70
same,"Kochia plant response rating (0 to 100 scale, 0 is no effect, 100 is complete control)","[2]; Postemergence, 500 g ai/ha",80
same,"Plant response rating, Kochia","[2]; preemergence, 500 g ai/ha",70
same,"Plant response rating, Ragweed",[3]; [16],40
same,"Plant response rating, Ragweed",[3]; [21],40
same,"Ragweed plant response rating (0 to 100 scale, 0 is no effect, 100 is complete control)","[3]; Postemergence, 500 g ai/ha",70
same,"Plant response rating, Ragweed","[3]; preemergence, 500 g ai/ha",50
same,"Plant response rating, Ryegrass, Italian",[4]; [16],0
same,"Plant response rating, Ryegrass, Italian",[4]; [21],30
same,"Ryegrass, Italian plant response rating (0 to 100 scale, 0 is no effect, 100 is complete control)","[4]; Postemergence, 500 g ai/ha",50
same,"Plant response rating, Ryegrass, Italian","[4]; preemergence, 500 g ai/ha",40
same,"Plant response rating, Foxtail, Giant",[5]; [16],80
same,"Plant response rating, Foxtail, Giant",[5]; [21],80
same,"Foxtail, Giant plant response rating (0 to 100 scale, 0 is no effect, 100 is complete control)","[5]; Postemergence, 500 g ai/ha",90
same,"Plant response rating, Foxtail, Giant","[5]; preemergence, 500 g ai/ha",90
same,"Plant response rating, Pigweed",[6]; [16],70
same,"Plant response rating, Pigweed",[6]; [21],60
same,"Pigweed plant response rating (0 to 100 scale, 0 is no effect, 100 is complete control)","[6]; Postemergence, 500 g ai/ha",70
same,"Plant response rating, Pigweed","[6]; preemergence, 500 g ai/ha",80
same,"Plant response rating, Wheat",[7]; [22],30
same,"Wheat plant response rating (0 to 100 scale, 0 is no effect, 100 is complete control)",[7],50
same,"Plant response rating, Corn",[8]; [23],0
same,"Plant response rating, Corn",[8]; [24],50
same,"Plant response rating, Blackgrass",[9]; [23],40
same,"Plant response rating, Blackgrass",[9]; [24],70
same,"Plant response rating, Galium",[10]; [22],70
same,"Galium plant response rating (0 to 100 scale, 0 is no effect, 100 is complete control)",[10],80
same,"Plant response rating, Rice",[11],0
same,"Plant response rating, Sedge, Umbrella",[12],0
same,"Plant response rating, Ducksalad",[13],100
same,"Plant response rating, Barnyardgrass",[14],40
